29 compounds from PubChem BioAssay (NCI) can be followed below.

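Grown in 96-well plates, cells were treated for 48 hours with each compound at five concentrations. Insufficient inhibition: endpoint recorded as highest concentration tested. Definition used: TGI = concentration required for complete inhibition of growth.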

One experiment concerns ACHN renal. The experiment is described as follows: NCI-60 cell line screen, 48 h.
`COC(=O)C1=C(C(=O)OC)SC2(S1)C1=C(CCCC1)SC(C(=O)OC)=C2C(=O)OC` registered a TGI of 18.4 µM.

`C/C=C/C(O)P1(=O)N(Cc2ccccc2)[C@@H]2CCCC[C@H]2N1Cc1ccccc1` (stereo partly specified) came in with a TGI of more than 25 µM.

Another experiment has as its system RPMI-8226 leukemia. The experiment is described as follows: NCI-60 cell line screen, 48 h.
Compound `CCC1(C(=O)OC(C)(C)C)OC12C(C)CCCC2C` (stereo unspecified) came in with a TGI of 49.9 µM.

In turn, `Cc1ccc(-c2cc(N)n(-c3nc4c(c(=O)n(C)c(=O)n4C)n3C)n2)cc1` came in with a TGI of more than 100 µM.

`CN(C)c1ccc(C2SCC(=O)N2NS(=O)(=O)c2cccc(C(=O)O)c2)cc1` (stereo unspecified) returned a TGI of more than 100 µM.

In the case of `CC1CCOc2ccc(cc2)C=Nc2ccc(cc2)CCc2ccc(cc2)N=Cc2ccc(cc2)OCC1` (stereo unspecified), the TGI is more than 100 µM.

Consider `O=C1c2ccccc2-c2nc(-c3cccc([N+](=O)[O-])c3)nnc21`, for which the TGI is more than 100 µM.

In the case of `CC(=O)N1N=C(c2ccc3ccccc3c2O)CC1C(=O)c1ccco1` (stereo unspecified), the TGI was 85 µM.

For `N#Cc1nc(-c2cccs2)oc1N`, the TGI was more than 100 µM.

Regarding `NC(=O)NNC(=O)c1nc[nH]c1[N+](=O)[O-]`, the TGI is more than 100 µM.

On to `O=c1c2c([N+](=O)[O-])cccc2nc2[nH]c3ccccc3n12`, for which the TGI is more than 75 µM.

Regarding `Cc1cc(C)cc(Nc2cc(=O)[nH]c(=O)[nH]2)c1`, the TGI was more than 100 µM.

With `O=c1[nH]/c(=C/c2ccc(OCc3ccccc3)cn2)c(=O)[nH]/c1=C/c1ccc(O)cc1`, the TGI was determined as 9.95 µM.

Compound `N#C/C(=C\n1ccc(=O)[nH]c1=S)C(N)=O` displayed a TGI of more than 100 µM.

With `O=C(NCCCCCCNCc1cccc2ccccc12)Nc1cccc2ccccc12`, the TGI was more than 100 µM.

`Cc1ccc([C@H]2CC(=O)C[C@H](c3ccc(C)cc3)C23C(=O)c2ccccc2C3=O)cc1` gave a TGI of more than 100 µM.

For the compound `CN(NC(=O)c1cccs1)C1=NCCCN1`, the TGI is more than 100 µM.

Consider `Cc1ccn2c(=O)cc(-c3ccccc3)nc2c1`, for which the TGI is more than 100 µM.

Consider `O=c1[nH]nc(Cc2ccc([N+](=O)[O-])cc2)n1CCO`, for which the TGI was more than 100 µM.

Regarding `CCn1nc2c3c(ncn3C(C)(C)O2)c1=O`, the TGI was more than 100 µM.

Compound `CCCCCC(=O)NC(=S)Nc1nn[nH]n1` yielded a TGI of more than 100 µM.

Consider `CCC(C#N)NC(=O)NC(C#N)CC` (stereo unspecified), for which the TGI is more than 100 µM.

`NCCN=C(Nc1ccccc1)Nc1ccccc1` came in with a TGI of more than 100 µM.

Turning to `COC(=O)C1=C(C(=O)OC)SC2(S1)C1=C(CCCC1)SC(C(=O)OC)=C2C(=O)OC`, the TGI stood at 17.7 µM.

For the next experiment, the system named is MALME-3M melanoma. Kind of experiment: NCI-60 cell line screen, 48 h.
`CCC1(C(=O)OC(C)(C)C)OC12C(C)CCCC2C` (stereo unspecified) had a TGI of more than 100 µM.

Turning to `Cc1ccc(-c2cc(N)n(-c3nc4c(c(=O)n(C)c(=O)n4C)n3C)n2)cc1`, the TGI was more than 100 µM.

`CN(C)c1ccc(C2SCC(=O)N2NS(=O)(=O)c2cccc(C(=O)O)c2)cc1` (stereo unspecified) displayed a TGI of more than 100 µM.

Compound `CC1CCOc2ccc(cc2)C=Nc2ccc(cc2)CCc2ccc(cc2)N=Cc2ccc(cc2)OCC1` (stereo unspecified) registered a TGI of more than 100 µM.

In the case of `COC(=O)[C@H](Cc1ccccc1)NC(=O)[C@H](Cc1ccccc1)NC(=O)[C@@H]1CCCN1C(=O)N[C@H]1C2C=CC(C2)C1C(=O)N1CCC[C@H]1C(=O)N[C@@H](C)C(=O)N[C@H](C(=O)OC)C(C)C` (stereo partly specified), the TGI is more than 100 µM.

Regarding `O=C1c2ccccc2-c2nc(-c3cccc([N+](=O)[O-])c3)nnc21`, the TGI turned out to be 38.4 µM.

As for `CC(=O)N1N=C(c2ccc3ccccc3c2O)CC1C(=O)c1ccco1` (stereo unspecified), the TGI was more than 100 µM.

Take `N#Cc1nc(-c2cccs2)oc1N`: the TGI was more than 100 µM.

As to `NC(=O)NNC(=O)c1nc[nH]c1[N+](=O)[O-]`, the TGI is more than 100 µM.

`O=c1c2c([N+](=O)[O-])cccc2nc2[nH]c3ccccc3n12` had a TGI of more than 75 µM.

Consider `Cc1cc(C)cc(Nc2cc(=O)[nH]c(=O)[nH]2)c1`, for which the TGI was more than 100 µM.

`O=c1[nH]/c(=C/c2ccc(OCc3ccccc3)cn2)c(=O)[nH]/c1=C/c1ccc(O)cc1` registered a TGI of 8.67 µM.

As for `N#C/C(=C\n1ccc(=O)[nH]c1=S)C(N)=O`, the TGI was more than 100 µM.

With `O=C(NCCCCCCNCc1cccc2ccccc12)Nc1cccc2ccccc12`, the TGI was more than 100 µM.

For the compound `Cc1ccc([C@H]2CC(=O)C[C@H](c3ccc(C)cc3)C23C(=O)c2ccccc2C3=O)cc1`, the TGI was more than 100 µM.

Regarding `NCCSc1nc2ccccc2c(=O)n1-c1ccccc1`, the TGI is more than 100 µM.

In the case of `COC(=O)C1=CC(=O)OC1(OO)c1ccccc1` (stereo unspecified), the TGI is more than 100 µM.

`Nc1ccc(N=Nc2ccccc2)cc1`: the TGI is more than 100 µM.

`CN(NC(=O)c1cccs1)C1=NCCCN1` registered a TGI of more than 100 µM.

With `Cc1ccn2c(=O)cc(-c3ccccc3)nc2c1`, the TGI is more than 100 µM.

Take `O=c1[nH]nc(Cc2ccc([N+](=O)[O-])cc2)n1CCO`: the TGI was more than 100 µM.

Take `CCn1nc2c3c(ncn3C(C)(C)O2)c1=O`: the TGI was more than 100 µM.

For `CCCCCC(=O)NC(=S)Nc1nn[nH]n1`, the TGI is more than 100 µM.

The compound `CCC(C#N)NC(=O)NC(C#N)CC` (stereo unspecified) returned a TGI of more than 100 µM.

In turn, `C[C@H](N)C(=O)Nc1ccc(-c2nc3ccccc3s2)cc1` had a TGI of 39.5 µM.

`Cc1ccc2c(c1)[nH]c1cc(C(F)(F)F)ccc1[p+]2=O` (stereo unspecified): the TGI was more than 100 µM.

Consider `NCCN=C(Nc1ccccc1)Nc1ccccc1`, for which the TGI was more than 100 µM.

`COC(=O)C1=C(C(=O)OC)SC2(S1)C1=C(CCCC1)SC(C(=O)OC)=C2C(=O)OC`: the TGI came to 24.3 µM.

For the compound `C/C=C/C(O)P1(=O)N(Cc2ccccc2)[C@@H]2CCCC[C@H]2N1Cc1ccccc1` (stereo partly specified), the TGI is more than 25 µM.

The test system of a further experiment is SF-268 CNS. Kind of experiment: NCI-60 cell line screen, 48 h.
Compound `CCC1(C(=O)OC(C)(C)C)OC12C(C)CCCC2C` (stereo unspecified) registered a TGI of more than 100 µM.

For `Cc1ccc(-c2cc(N)n(-c3nc4c(c(=O)n(C)c(=O)n4C)n3C)n2)cc1`, the TGI was more than 100 µM.

`CN(C)c1ccc(C2SCC(=O)N2NS(=O)(=O)c2cccc(C(=O)O)c2)cc1` (stereo unspecified) had a TGI of more than 100 µM.

`CC1CCOc2ccc(cc2)C=Nc2ccc(cc2)CCc2ccc(cc2)N=Cc2ccc(cc2)OCC1` (stereo unspecified): the TGI was more than 100 µM.

Consider `COC(=O)[C@H](Cc1ccccc1)NC(=O)[C@H](Cc1ccccc1)NC(=O)[C@@H]1CCCN1C(=O)N[C@H]1C2C=CC(C2)C1C(=O)N1CCC[C@H]1C(=O)N[C@@H](C)C(=O)N[C@H](C(=O)OC)C(C)C` (stereo partly specified), for which the TGI is more than 100 µM.

As for `O=C1c2ccccc2-c2nc(-c3cccc([N+](=O)[O-])c3)nnc21`, the TGI was more than 100 µM.

`CC(=O)N1N=C(c2ccc3ccccc3c2O)CC1C(=O)c1ccco1` (stereo unspecified) had a TGI of more than 100 µM.

As to `N#Cc1nc(-c2cccs2)oc1N`, the TGI is more than 100 µM.

The compound `NC(=O)NNC(=O)c1nc[nH]c1[N+](=O)[O-]` registered a TGI of more than 100 µM.

As for `O=c1c2c([N+](=O)[O-])cccc2nc2[nH]c3ccccc3n12`, the TGI is 62 µM.

In turn, `Cc1cc(C)cc(Nc2cc(=O)[nH]c(=O)[nH]2)c1` registered a TGI of more than 100 µM.

In turn, `N#C/C(=C\n1ccc(=O)[nH]c1=S)C(N)=O` yielded a TGI of more than 100 µM.

For `O=C(NCCCCCCNCc1cccc2ccccc12)Nc1cccc2ccccc12`, the TGI is more than 100 µM.
